Data taken from patent publication US20240270762A1, “PENICILLIN-BINDING PROTEIN INHIBITORS” (priority 2021, published 2024).
≈ marks a conversion by molar mass, not a printed value. Like-named read-outs stand apart in the source and are kept apart here.

Assays:
[1] = system: P. aeruginosa CDC-0054; assay: microbe, parasite or virus in culture; type: cell-based; conditions: Pseudomonas aeruginosa, CDC0054, read-out: Minimum inhibitory concentration, P. aeruginosa CDC-0054
[2] = system: N. gonorrhoeae ATCC 49226; assay: Liquid broth MIC in Fastidious broth; conditions: Neisseria gonorrhoeae
[3] = system: P. aeruginosa (ΔmexAB-oprM); assay: Broth microdilution MIC in iron-depleted CAMHB (IDM); type: cell-based; conditions: Pseudomonas aeruginosa; iron-depleted CAMHB (IDM); […]; read-out: Minimum inhibitory concentration, P. aeruginosa ΔmexAB-oprM
[4] = system: N. gonorrhoeae MS11; assay: Liquid broth MIC in Fastidious broth; conditions: Neisseria gonorrhoeae
[5] = system: P. aeruginosa ATCC 35151; assay: microbe, parasite or virus in culture; type: cell-based; conditions: Pseudomonas aeruginosa, ATCC35151, read-out: Minimum inhibitory concentration, P. aeruginosa ATCC 35151
[6] = biological target: T1, PBP3 from Acinetobacter baumannii (ATCC 19606) (Acinetobacter baumannii, UniProt A0ABX6CK25); assay: Bocillin-FL fluorescence polarization competition binding, A. baumannii PBP3; conditions: fluorescence polarization competition binding assay using Bocillin-FL; read-out: A. baumannii PBP3 Potency
T1 sequence (A0ABX6CK25 64-610): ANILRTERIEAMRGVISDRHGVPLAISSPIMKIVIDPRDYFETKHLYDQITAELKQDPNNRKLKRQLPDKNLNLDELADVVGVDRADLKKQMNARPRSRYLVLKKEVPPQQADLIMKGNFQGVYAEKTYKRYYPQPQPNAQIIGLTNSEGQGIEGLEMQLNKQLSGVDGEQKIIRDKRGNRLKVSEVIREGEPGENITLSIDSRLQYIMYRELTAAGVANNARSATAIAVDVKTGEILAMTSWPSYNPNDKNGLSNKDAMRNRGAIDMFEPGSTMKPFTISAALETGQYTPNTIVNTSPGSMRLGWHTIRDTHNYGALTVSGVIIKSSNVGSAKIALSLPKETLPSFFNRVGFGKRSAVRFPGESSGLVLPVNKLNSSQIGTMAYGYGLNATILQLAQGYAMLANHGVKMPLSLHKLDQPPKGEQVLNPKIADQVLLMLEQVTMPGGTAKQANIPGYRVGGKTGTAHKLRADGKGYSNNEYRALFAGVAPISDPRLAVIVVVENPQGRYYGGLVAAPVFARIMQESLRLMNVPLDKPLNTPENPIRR
How it was run: (§1)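 Purified PBP was preincubated with inhibitor (E. coli PBP3 1.5 μM, 30 min; P. aeruginosa PBP3 0.75 μM, A. baumannii PBP3 0.2 μM and PBP1a 1 μM, 15 min), then Bocillin-FL (0.1 μM; 0.05 μM for PBP1a) added and FP read up to 60 min. EC50 = 50% loss of bound probe.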

[7] = system: N. gonorrhoeae WHO K; assay: Liquid broth MIC in Fastidious broth; conditions: Neisseria gonorrhoeae
[8] = biological target: T2, PBP3 from Escherichia coli (K-12) (Escherichia coli, UniProt P0AD68); assay: Bocillin-FL fluorescence polarization competition binding, E. coli PBP3
T2 construct: made in house
How it was run: as §1

[9] = system: N. gonorrhoeae WHO Z; assay: Liquid broth MIC in Fastidious broth; conditions: Neisseria gonorrhoeae
[10] = system: A. baumannii ATCC 17978; assay: microbe, parasite or virus in culture; type: cell-based; conditions: Acinetobacter baumannii, ATCC17978, read-out: MIC, A. baumannii ATCC 17978
[11] = ATCC49226, read-out: Minimum Inhibitory Concentration (MIC), N. gonorrhoeae ATCC 49226
[12] = MS11, read-out: Minimum Inhibitory Concentration (MIC), N. gonorrhoeae MS11
[13] = read-out: Minimum Inhibitory Concentration (MIC), N. gonorrhoeae WHO K
[14] = read-out: Minimum Inhibitory Concentration (MIC), N. gonorrhoeae WHO Z
[15] = ATCC49226, read-out: Minimum Inhibitory Concentration, ATCC 49226
[16] = MS11, read-out: Minimum Inhibitory Concentration, MS11
[17] = read-out: Minimum Inhibitory Concentration, WHO K
[18] = read-out: Minimum Inhibitory Concentration, WHO Z

T2 sequence (P0AD68 1-577): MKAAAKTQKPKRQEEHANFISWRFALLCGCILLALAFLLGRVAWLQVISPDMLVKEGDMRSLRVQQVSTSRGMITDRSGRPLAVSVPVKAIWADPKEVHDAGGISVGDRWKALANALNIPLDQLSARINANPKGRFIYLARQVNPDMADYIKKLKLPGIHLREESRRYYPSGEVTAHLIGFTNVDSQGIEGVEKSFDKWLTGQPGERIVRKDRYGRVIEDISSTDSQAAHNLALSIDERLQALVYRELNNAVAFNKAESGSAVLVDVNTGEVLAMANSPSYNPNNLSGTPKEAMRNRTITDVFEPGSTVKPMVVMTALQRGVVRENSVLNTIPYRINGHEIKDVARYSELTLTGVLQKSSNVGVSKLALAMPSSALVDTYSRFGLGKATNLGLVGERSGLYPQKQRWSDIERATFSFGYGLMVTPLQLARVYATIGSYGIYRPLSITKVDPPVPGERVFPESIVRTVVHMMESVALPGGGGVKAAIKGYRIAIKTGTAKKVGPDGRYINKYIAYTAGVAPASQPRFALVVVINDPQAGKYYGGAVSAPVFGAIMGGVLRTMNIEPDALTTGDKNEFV

| SMILES | MIC [1] | MIC [2, 11] | MIC [3] | MIC [4, 12] | MIC [5] | IC50 [6] | MIC [7, 13] | EC50 [8] | MIC [9, 14] | MIC [10] | MIC [2, 15] | MIC [4, 16] | MIC [7, 17] | MIC [9, 18] |
| --- | --- | --- | --- | --- | --- | --- | --- | --- | --- | --- | --- | --- | --- | --- |
| CN(CCN1CCN(C(=O)N[C@@H](C(=O)N[C@H]2Cc3ccc(F)c(C(=O)O)c3OB2O)c2cc(F)c(O)c(O)c2Cl)C(=O)C1=O)Cc1cncc(O)c1 [Example 208, (R)-3-((R)-2-(2-chloro-5-fluoro-3,4-dihydroxyphenyl)-2-(4-(2-(((5-hydroxypyridin-3-yl)methyl)(methyl)amino)ethyl)-2,3-dioxopiperazine-1-carboxamido)acetamido)-7-fluoro-2-hydroxy-3,4-dihydro-2H-benzo[e][1,2]oxaborinine-8-carboxylic acid] | 2 to 4 µg/mL (≈ 2.68 to 5.36 µM) | 4 to 8 µg/mL (≈ 5.36 to 10.7 µM) | < 1 µg/mL | 4 to 8 µg/mL (≈ 5.36 to 10.7 µM) | < 1 µg/mL | < 10 µM | 16 to 32 µg/mL (≈ 21.4 to 42.8 µM) | < 10 µM | 16 to 32 µg/mL (≈ 21.4 to 42.8 µM) | < 1 µg/mL | – | – | – | – |
| O=C(NCCCS(=O)(=O)N1CCN(C(=O)N[C@@H](C(=O)N[C@H]2Cc3ccc(F)c(C(=O)O)c3OB2O)c2cc(F)c(O)c(O)c2Cl)C1=O)c1cccc(O)c1 [Example 271, (R)-3-((R)-2-(2-chloro-5-fluoro-3,4-dihydroxyphenyl)-2-(3-((3-(3-hydroxybenzamido)propyl)sulfonyl)-2-oxoimidazolidine-1-carboxamido)acetamido)-7-fluoro-2-hydroxy-3,4-dihydro-2H-benzo[e][1,2]oxaborinine-8-carboxylic acid] | 2 to 4 µg/mL (≈ 2.51 to 5.03 µM) | – | < 1 µg/mL | – | < 1 µg/mL | < 10 µM | – | < 10 µM | – | < 1 µg/mL | 16 to 32 µg/mL (≈ 20.1 to 40.2 µM) | 16 to 32 µg/mL (≈ 20.1 to 40.2 µM) | > 64 µg/mL | 4 to 8 µg/mL (≈ 5.03 to 10.1 µM) |
| O=C(NCCCS(=O)(=O)N1CCN(C(=O)NC(C(=O)N[C@H]2Cc3ccc(F)c(C(=O)O)c3OB2O)c2cc(F)c(O)c(O)c2Cl)C1=O)c1ccncc1 (stereo partly drawn) [Example 272, (3R)-3-(2-(2-chloro-5-fluoro-3,4-dihydroxyphenyl)-2-(3-((3-(isonicotinamido)propyl)sulfonyl)-2-oxoimidazolidine-1-carboxamido)acetamido)-7-fluoro-2-hydroxy-3,4-dihydro-2H-benzo[e][1,2]oxaborinine-8-carboxylic acid] | 8 to 16 µg/mL (≈ 10.2 to 20.5 µM) | – | < 1 µg/mL | – | < 1 µg/mL | < 10 µM | – | < 10 µM | – | < 1 µg/mL | 16 to 32 µg/mL (≈ 20.5 to 41 µM) | 16 to 32 µg/mL (≈ 20.5 to 41 µM) | > 64 µg/mL | 4 to 8 µg/mL (≈ 5.12 to 10.2 µM) |
| O=C(CN1CCN(C(=O)NC(C(=O)N[C@H]2Cc3ccc(F)c(C(=O)O)c3OB2O)c2cc(F)c(O)c(O)c2Cl)C(=O)C1=O)Nc1cccc(O)c1 (stereo partly drawn) [Example 231, (3R)-3-(2-(2-chloro-5-fluoro-3,4-dihydroxyphenyl)-2-(4-(2-((3-hydroxyphenyl)amino)-2-oxoethyl)-2,3-dioxopiperazine-1-carboxamido)acetamido)-7-fluoro-2-hydroxy-3,4-dihydro-2H-benzo[e][1,2]oxaborinine-8-carboxylic acid] | 2 to 4 µg/mL (≈ 2.73 to 5.47 µM) | 16 to 32 µg/mL (≈ 21.9 to 43.7 µM) | < 1 µg/mL | 16 to 32 µg/mL (≈ 21.9 to 43.7 µM) | < 1 µg/mL | < 10 µM | 16 to 32 µg/mL (≈ 21.9 to 43.7 µM) | < 10 µM | 16 to 32 µg/mL (≈ 21.9 to 43.7 µM) | < 1 µg/mL | – | – | – | – |
| O=C(CN1CCN(C(=O)NC(C(=O)N[C@H]2Cc3ccc(F)c(C(=O)O)c3OB2O)c2cc(F)c(O)c(O)c2Cl)C(=O)C1=O)Nc1ccc(O)cc1 (stereo partly drawn) [Example 230, (3R)-3-(2-(2-chloro-5-fluoro-3,4-dihydroxyphenyl)-2-(4-(2-((4-hydroxyphenyl)amino)-2-oxoethyl)-2,3-dioxopiperazine-1-carboxamido)acetamido)-7-fluoro-2-hydroxy-3,4-dihydro-2H-benzo[e][1,2]oxaborinine-8-carboxylic acid] | < 1 µg/mL | 4 to 8 µg/mL (≈ 5.47 to 10.9 µM) | < 1 µg/mL | 4 to 8 µg/mL (≈ 5.47 to 10.9 µM) | < 1 µg/mL | < 10 µM | 16 to 32 µg/mL (≈ 21.9 to 43.7 µM) | < 10 µM | 4 to 8 µg/mL (≈ 5.47 to 10.9 µM) | < 1 µg/mL | – | – | – | – |
| O=C(NCCCN1CCN(C(=O)NC(C(=O)N[C@H]2Cc3ccc(F)c(C(=O)O)c3OB2O)c2cc(F)c(O)c(O)c2Cl)C(=O)C1=O)c1ccc(O)cc1 (stereo partly drawn) [Example 203, (3R)-3-(2-(2-chloro-5-fluoro-3,4-dihydroxyphenyl)-2-(4-(3-(4-hydroxybenzamido)propyl)-2,3-dioxopiperazine-1-carboxamido)acetamido)-7-fluoro-2-hydroxy-3,4-dihydro-2H-benzo[e][1,2]oxaborinine-8-carboxylic acid] | < 1 µg/mL | 4 to 8 µg/mL (≈ 5.26 to 10.5 µM) | < 1 µg/mL | 4 to 8 µg/mL (≈ 5.26 to 10.5 µM) | < 1 µg/mL | < 10 µM | > 64 µg/mL | < 10 µM | 16 to 32 µg/mL (≈ 21.1 to 42.1 µM) | < 1 µg/mL | – | – | – | – |
| O=C(CN1CCN(C(=O)NC(C(=O)N[C@H]2Cc3ccc(F)c(C(=O)O)c3OB2O)c2cc(F)c(O)c(O)c2Cl)C(=O)C1=O)Nc1cccnc1 (stereo partly drawn) [Example 234, (3R)-3-(2-(2-chloro-5-fluoro-3,4-dihydroxyphenyl)-2-(2,3-dioxo-4-(2-oxo-2-(pyridin-3-ylamino)ethyl)piperazine-1-carboxamido)acetamido)-7-fluoro-2-hydroxy-3,4-dihydro-2H-benzo[e][1,2]oxaborinine-8-carboxylic acid] | 2 to 4 µg/mL (≈ 2.79 to 5.58 µM) | 4 to 8 µg/mL (≈ 5.58 to 11.2 µM) | < 1 µg/mL | 16 to 32 µg/mL (≈ 22.3 to 44.6 µM) | < 1 µg/mL | < 10 µM | 16 to 32 µg/mL (≈ 22.3 to 44.6 µM) | < 10 µM | 16 to 32 µg/mL (≈ 22.3 to 44.6 µM) | < 1 µg/mL | – | – | – | – |
| O=C(CN1CCN(C(=O)NC(C(=O)N[C@H]2Cc3ccc(F)c(C(=O)O)c3OB2O)c2cc(F)c(O)c(O)c2Cl)C(=O)C1=O)NCc1ccccc1 (some centres unmarked) [Example 238] | 2 to 4 µg/mL (≈ 2.74 to 5.48 µM) | 16 to 32 µg/mL (≈ 21.9 to 43.8 µM) | < 1 µg/mL | 16 to 32 µg/mL (≈ 21.9 to 43.8 µM) | < 1 µg/mL | < 10 µM | > 64 µg/mL | < 10 µM | 16 to 32 µg/mL (≈ 21.9 to 43.8 µM) | < 1 µg/mL | – | – | – | – |
